Series [1] relates to Leishmania major. Put plainly: Antimicrobial activity against Leishmania major MHOM/IL/81/BNI promastigotes after 96 hrs by resazurin-based assay. Format: functional, organism-based. In general terms: The colour change of resazurin is a common sign of viable cells or microbes.
For series [2], the system named is Leishmania mexicana. The series is described as follows: Antimicrobial activity against Leishmania mexicana MHOM/MX/95/NAN1 promastigotes after 96 hrs by resazurin-based assay. In kind it is functional, organism-based. The conditions noted are these: MHOM/MX/95/NAN1, 96 h.
The subject of series [3] is Leishmania donovani. The series is described as follows: Antimicrobial activity against Leishmania donovani MHOM/IN/00/DEVI promastigotes after 72 hrs by MTT assay. In kind it is functional, organism-based. For orientation: Tetrazolium dyes change colour on reduction, which living cells bring about.
Series [4] is described as follows: Cytotoxicity against mouse J774A1 cells after 72 hrs by MTT assay. In kind it is cell-based, J774.A1.
Series [5] in a line: Cytotoxicity against human HepG2 cells after 72 hrs by MTT assay. Format: cell-based.
Series [6] is described as follows: Selectivity index, ratio of CC50 for human HepG2 cells to IC50 for Leishmania major MHOM/IL/81/BNI promastigotes. Format: functional.
The nature of series [7]: Selectivity index, ratio of CC50 for human HepG2 cells to IC50 for Leishmania mexicana MHOM/MX/95/NAN1 promastigotes. Format: functional.
A short description of series [8]: Selectivity index, ratio of CC50 for human HepG2 cells to IC50 for Leishmania donovani MHOM/IN/00/DEVI promastigotes. In kind it is functional.
Series [9] is described as follows: Selectivity index, ratio of CC50 for mouse J774A1 cells to IC50 for Leishmania major MHOM/IL/81/BNI promastigotes. Format: functional, J774.A1.
A short description of series [10]: Selectivity index, ratio of CC50 for mouse J774A1 cells to IC50 for Leishmania mexicana MHOM/MX/95/NAN1 promastigotes. Format: functional, J774.A1.
Series [11] is described as follows: Selectivity index, ratio of CC50 for mouse J774A1 cells to IC50 for Leishmania donovani MHOM/IN/00/DEVI promastigotes. Format: functional, J774.A1.
The subject of series [12] is Plasmodium falciparum. Put plainly: Antimicrobial activity against chloroquine-resistant and mefloquine-sensitive Plasmodium falciparum W2 infected in human erythrocytes after 48 hrs by SYBR Green I assay. To be noted: W2, 48 h. Format: functional, organism-based.
Series [13] has as its system Plasmodium falciparum. The series is described as follows: Antimicrobial activity against chloroquine and mefloquine-sensitive Plasmodium falciparum 3D7 infected in human erythrocytes after 48 hrs by SYBR Green I assay. In kind it is functional, organism-based. To be noted: 3D7, 48 h.
The nature of series [14]: Selectivity index, ratio of CC50 for human HepG2 cells to IC50 for chloroquine-resistant and mefloquine-sensitive Plasmodium falciparum W2. Format: functional.
A short description of series [15]: Selectivity index, ratio of CC50 for human HepG2 cells to IC50 for chloroquine and mefloquine-sensitive Plasmodium falciparum 3D7. Format: functional.
Series [16] has as its system Trypanosoma brucei brucei. Put plainly: Antimicrobial activity against Trypanosoma brucei brucei Antat 1.1 after 24 hrs by haemocytometric analysis. Format: functional, organism-based. To be noted: Antat 1.1, 24 h.
Series [17] is described as follows: Selectivity index, ratio of CC50 for human HepG2 cells to IC50 for Trypanosoma brucei brucei Antat 1.1. Format: functional.

Results on eleven molecules are retold here after ChEMBL document CHEMBL3259800, “Design, synthesis and biological evaluation of novel 4-alkapolyenylpyrrolo[1,2-a]quinoxalines as antileishmanial agents--part III” (Eur J Med Chem, 2014).

The IC50 is the point on the concentration scale where inhibition reaches its midpoint. Lower therefore signals higher potency. For orientation: CC50 means the concentration at which the toxic effect on the cells reaches its halfway point.

For `C/C=C/C=C/c1nc2ccccc2n2ccc(OCC)c12`, the IC50 in [1] was 1.5 µM; in series [2], 9.6 µM; in [3] it was 4 µM; in series [12] it was 9.6 µM; in [13], 7.7 µM. Besides, the 50% cytotoxic concentration (CC50) at 72 h came to 3.5 µM in [4] and 4.5 µM in [5]. Besides, the “Ratio CC50/IC50” value is recorded as 3 in series [6]; 0.5 in series [7]; 1.1 in series [8]; 2.3 in [9]; 0.4 in [10]; 0.9 in series [11]. For the same molecule, the “Ratio CC50/IC50” value is reported as 0.5 in [14] and 0.6 in series [15].

With `CCC/C=C/C=C/c1nc2ccc(OC)cc2n2cccc12`, the IC50 in [1] was 7.4 µM; in series [2], 5.1 µM; in series [3], 7.6 µM; in series [12] it was 11 µM; in series [13], 3.3 µM. Also, the half-maximal cytotoxic concentration (CC50) at 72 h in [4] stood at 7.8 µM; in series [5], 20.1 µM. In addition, the “Ratio CC50/IC50” value in [6] is on record as 2.7; in [7] it was 4; in [8] it was 2.6; in series [9] it was 1.1; in [10] it was 1.5; in [11], 1. Further, the “Ratio CC50/IC50” value in series [14] is given as 1.8; in [15], 6.1.

For `CCCC/C=C/C=C/c1nc2ccccc2n2cccc12`, the half-maximal inhibitory concentration (IC50) is 3.7 µM in [1]; 6.1 µM in series [2]; 13.7 µM in series [3]; 6.7 µM in series [12]; 6.3 µM in series [13]. Besides, the half-maximal cytotoxic concentration (CC50) at 72 h in [4] worked out at 8.8 µM; in series [5] it was 8.2 µM. Also, the “Ratio CC50/IC50” value is on record as 2.2 in series [6]; 1.3 in series [7]; 0.6 in [8]; 2.4 in series [9]; 1.4 in series [10]; 0.6 in [11]. For the same molecule, the “Ratio CC50/IC50” value came out at 1.2 in series [14] and 1.3 in [15].

Take `CCC/C=C/C=C/c1nc2cccc(OC)c2n2cccc12`: the 50% inhibitory concentration (IC50) in series [1] worked out at 3.9 µM; in [2], 10.3 µM; in series [3], 9.9 µM; in [12], 1.3 µM; in series [13] it was 1.6 µM. Moreover, the CC50 at 72 h in series [4] was 7.1 µM; in series [5] it was 17.4 µM. For the same molecule, the “Ratio CC50/IC50” value in series [6] was found to be 4.5; in series [7], 1.7; in series [8], 1.8; in series [9], 1.8; in series [10], 0.7; in series [11], 0.7. Moreover, the “Ratio CC50/IC50” value came to 13.4 in [14] and 10.9 in series [15].

For `N=C(N)c1ccc(OCCCCCOc2ccc(C(=N)N)cc2)cc1` [PENTAMIDINE], the IC50 in [1] was 4.3 µM; in [2], 2.4 µM; in series [3], 5.5 µM; in series [16] it was 0.05 µM. This molecule also registered a CC50 at 72 h in series [4] of 0.56 µM. The “Ratio CC50/IC50” value in [6] was determined as 0.5; in series [7], 1; in [8], 0.4; in [9], 0.1; in series [10] it was 0.2; in series [11], 0.1. Besides, the “Ratio CC50/IC50” value in [17] came out at 46.

`CCC/C=C/C=C/c1nc2ccccc2n2cccc12`: the IC50 came to 3.9 µM in series [1]; 12.1 µM in series [2]; 7.6 µM in series [3]; 1.1 µM in [12]; 2.5 µM in [13]. The CC50 at 72 h turned out to be 4.7 µM in series [4] and 9.3 µM in [5]. The “Ratio CC50/IC50” value stood at 2.4 in series [6]; 0.8 in series [7]; 1.2 in series [8]; 1.2 in series [9]; 0.4 in series [10]; 0.6 in series [11]. The results for the “Ratio CC50/IC50” value in series [14] and in series [15] were 8.5 and 3.7, respectively.

Turning to `CCC/C=C/C=C/c1nc2cc(OC)ccc2n2cccc12`, the concentration for half-maximal inhibition (IC50) in series [1] worked out at 2.8 µM; in series [2], 3.2 µM; in series [3], 8.6 µM; in series [16] it was 1.9 µM; in series [12], 0.8 µM; in series [13] it was 2.3 µM. For the same molecule, the results for the CC50 at 72 h in series [4] and in series [5] were 6.5 µM and 8.8 µM, respectively. Also, the “Ratio CC50/IC50” value in series [6] worked out at 3.1; in [7], 2.8; in series [8], 1; in series [9], 2.3; in series [10], 2; in series [11], 0.8. The “Ratio CC50/IC50” value in series [17] worked out at 4.6; in series [14], 11; in [15] it was 3.8.

For `CCCC/C=C/C=C/c1nc2cccc(OC)c2n2cccc12`, the half-maximal inhibitory concentration (IC50) in series [1] is 5.8 µM; in series [2] it was 4.5 µM; in series [3], 11.6 µM; in [12] it was 19.8 µM; in series [13], 9.8 µM. Besides, the values for the half-maximal cytotoxic concentration (CC50) at 72 h in [4] and in series [5] were 6.4 µM and 15.8 µM, respectively. Moreover, the “Ratio CC50/IC50” value in series [6] came to 2.7; in [7], 3.5; in series [8] it was 1.4; in series [9], 1.1; in series [10], 1.4; in [11] it was 0.6. For the same molecule, the “Ratio CC50/IC50” value was 0.8 in series [14] and 1.6 in [15].

Regarding `C/C=C/C=C/c1nc2cc(OC)ccc2n2cccc12`, the IC50 stood at 3 µM in series [1]; 3.3 µM in series [2]; 5.3 µM in series [3]; 2.1 µM in [16]; 3.4 µM in series [12]; 3.3 µM in series [13]. Further, the CC50 at 72 h in [4] stood at 2.5 µM; in [5], 5.8 µM. Further, the “Ratio CC50/IC50” value in series [6] turned out to be 1.9; in [7], 1.8; in series [8], 1.1; in series [9], 0.8; in series [10] it was 0.8; in series [11], 0.5. Also, the “Ratio CC50/IC50” value in [17] turned out to be 2.8; in series [14], 1.7; in series [15], 1.8.

Turning to `CCCC/C=C/C=C/c1nc2ccc(OC)cc2n2cccc12`, the IC50 in series [1] worked out at 4.4 µM; in series [2] it was 3.8 µM; in series [3], 14.7 µM; in [16], 1.3 µM; in series [12], 13.3 µM; in series [13] it was 10.4 µM. In addition, the CC50 at 72 h in series [4] was determined as 10 µM; in series [5] it was 22.9 µM. For the same molecule, the “Ratio CC50/IC50” value in series [6] was 5.2; in [7], 6; in series [8], 1.6; in series [9], 2.3; in series [10], 2.6; in [11], 0.7. For the same molecule, the figures for the “Ratio CC50/IC50” value in series [17], in [14] and in series [15] were 17.6, 1.7 and 2.2, respectively.

`O[C@@H](c1cc(C(F)(F)F)nc2c(C(F)(F)F)cccc12)[C@H]1CCCCN1` [(S,R)-MEFLOQUINE] showed an IC50 in series [12] of 0.015 µM.
